# In ChEMBL document CHEMBL4483862, “Open-source discovery of chemical leads for next-generation chemoprotective antimalarials” (2018):
# Test system: Plasmodium berghei
# Experiment: Luciferase/luciferin-expressing antifolate-resistant parasites were used to infect a culture of HepG2 cells that were pre-incubated with compounds. Infected hepatocytes emit light due to the luciferase reaction. Assay results are presented as the percent inhibition of light emission compared to control. […]
# Format: functional
# Conditions: sporozoite; for IC50: read-out: LUCIFERASE INFECTION ASSAY - IC50; for IC90: read-out: LUCIFERASE INFECTION ASSAY - IC90
Compound,IC50 [µM],IC90 [µM]
CNc1ccccc1C(C)(C)c1cc(-c2ccc(F)cc2)no1,8.62,> 10
CCN(CC)C(=O)c1sc2nc(-c3ccccn3)nc(O)c2c1C,> 10,> 10
C=CCn1c(C)cc(C2=NN=C(NC(C)(C)C)SC2)c1C,0.366,0.38
Cc1ccc(C(C)C)c(OCc2ccc(-c3nnco3)cc2)c1,> 10,> 10
COc1cccc(C(=O)OCC(=O)c2c[nH]c3ccccc23)c1O,> 10,> 10
COc1cc(NC(=O)COC(=O)CNC(=O)C2CCCCC2)cc(OC)c1,> 10,> 10
CCOc1cc(/C=C2\COc3ccccc3C2=O)ccc1OCC(=O)N(C)C,> 10,> 10
CCc1ccc(CN(C)CC(O)COc2cccc3ccccc23)cc1 (configuration not stated),> 10,> 10
CCc1nc(Sc2nnnn2-c2ccccc2)c2c3c(sc2n1)CCCC3,> 10,> 10
CCCn1nc(C(=O)N2CCCc3ccccc32)c2ccccc2c1=O,> 10,> 10
COc1cc(C(=O)c2c(C)c(CCC#N)n3ccccc23)cc(OC)c1OC,2,6.92
COc1cc2c(C#N)c(N3CCc4ccccc4C3)nc(N)c2c(N)n1,> 10,> 10
O=c1cc(CN2CCCCCC2)nc2sccn12,1.12,1.39
COCC(C)n1c(C)cc(C(=O)COC(=O)c2cccn2C)c1C (configuration not stated),1.82,6.18
CC(C)(c1ccc(O)cc1)c1ccc(Cl)cc1,> 10,> 10
CC1CCCC(NC(=O)CSc2nnc(O)n2Cc2ccccc2)C1C (configuration not stated),> 10,> 10
COc1ccc(NC(=O)c2ccc(O)nc2)cc1S(=O)(=O)N1CCOCC1,> 10,> 10
Cc1ccc(C(C)C)cc1OCc1nnc2n(C)c(=O)c3ccccc3n12,> 10,> 10
CC(=O)c1c(C)[nH]c(C(=O)Nc2nc(-c3ccc4c(c3)CCC4)cs2)c1C,6.23,> 10
O=c1c2c(-c3ccccc3)csc2nc2c3ccccc3c(NCCO)nn12,> 10,> 10
CCOC(=O)c1sc2c(c1C)C(c1ccccc1)C1C(=O)CC(C)(C)CC1=N2 (configuration not stated),1.87,4.4
Cc1nc(Sc2nnc3ccccn23)c2c3c(sc2n1)CCCC3,2.94,3.52
CC(OC(=O)c1ccc2ncsc2c1)C(=O)N1CCCC1 (configuration not stated),> 10,> 10

Compound,IC50 [µM],IC90 [µM]
COc1ccc(/C=C/c2nc3cc(-c4nc5ccccc5[nH]4)ccc3s2)cc1,1.84,4.48
CC(C)(c1ccccc1)c1ccc(OCC(O)CN2CCC(C(N)=O)CC2)cc1 (configuration not stated),> 10,> 10
COc1cc(C(=O)OCc2c(C)cc(C(C)(C)C)cc2C)cc(OC)c1OC,> 10,> 10
Cc1ccc(Sc2ncccc2C(=O)Nc2nc3c(s2)CCCC3)cc1,3.38,3.95
CCc1cccc(CC)c1NC(=O)COC(=O)c1[nH]c(C)c(C(C)=O)c1C,> 10,> 10
COc1cc(C(=O)NCCN(C(C)C)C(C)C)cc(OC)c1C,> 10,> 10
COc1ccc(-c2nc(NC(=O)c3cnc(C)cn3)sc2C)cc1,> 10,> 10
COc1ccccc1C(=O)N(c1ccc(F)cc1)c1nc2ccccc2s1,> 10,> 10
O=C(COC(=O)CCC1CCCC1)Nc1ncc(C(F)(F)F)cc1Cl,> 10,> 10
CCn1c(-c2ccccc2)c(C(=O)COc2ccccc2OC)c2ccccc21,> 10,> 10
CC1CCN(Cc2c(-c3ccccc3)n(C)c3ccccc23)CC1,> 10,> 10
Cc1cc(C(=O)COC(=O)C2=COCCO2)c(C)n1Cc1ccco1,> 10,> 10
Cc1cc(CNC(C)c2cc(F)c(Cl)cc2Cl)cc(C)c1O (configuration not stated),> 10,> 10
Cc1[nH]c2ccc(C(=O)Nc3nc(CN4CCCC(C)C4)cs3)cc2c1C (configuration not stated),> 10,> 10
C=CCN1C(=O)C(O)(c2cnc(N)s2)c2ccccc21 (configuration not stated),> 10,> 10
Cc1ccc(NC(=O)C(OC(=O)c2c(C)noc2C)c2ccccc2)cc1Cl (configuration not stated),> 10,> 10
Cc1ccc(C2(C(F)(F)F)NC(=O)c3ccc(OC(C)C)cc3O2)cc1 (configuration not stated),3.99,> 10
Cc1cc(C(=O)OCC(=O)N(CCC#N)c2ccc(F)cc2)c2ccccc2n1,> 10,> 10
CN(C)C(C(=O)c1ccccc1)C(c1ccc(F)cc1)c1ccc(F)cc1 (configuration not stated),> 10,> 10
Cc1cc(C)c(-c2csc(NC(=O)Cc3ccccc3)n2)c(C)c1,2.81,3.56
Cc1nnc(NC(=O)c2ccc3c(c2)SC2=NS(=O)(=O)CCN23)s1,> 10,> 10
Cc1ccc(C)c(OCCSc2ccc(C(=O)NC3CC3)cn2)c1,3.35,3.93
c1ccc(-c2ncc(CSc3ncnc4sccc34)s2)cc1,> 10,> 10

Compound,IC50 [µM],IC90 [µM]
O=C1N=C(NC2CCCCC2)S/C1=C\c1cccc(C(F)(F)F)c1,> 10,> 10
CNc1nc(CSc2ccc(Cl)cc2)nc2sc3c(c12)CCC3,> 10,> 10
Cc1nc(SCC(=O)c2cc(C)n(-c3ccccc3)c2C)c2ccsc2n1,> 10,> 10
Cc1cc(C)n2cc(CN(C)Cc3ccccc3)nc2n1,> 10,> 10
Cc1ccc(NCC(=O)c2ccc(-n3nncc3-c3ccccc3)cc2)cc1,> 10,> 10
COc1ccccc1-c1nc(CCl)cs1,> 10,> 10
CCN(C(=O)c1ccccc1Br)c1nc2c(C)cccc2s1,> 10,> 10
Cc1cc(C(=O)CSc2nc3ccccc3s2)c(C)n1CC1CCCO1 (configuration not stated),> 10,> 10
OC(CNCC1COc2ccccc2C1)COc1ccc(Cl)cc1Cl (configuration not stated),> 10,> 10
O=C(CCSc1nc(NC2CC2)c2ccccc2n1)N1CCc2ccccc21,3.46,7.86
Cc1cc(C(=O)OCc2c(Cl)cccc2Cl)c(C)o1,> 10,> 10
CCN(C(=O)COc1ccc(-c2ccccc2)cc1)c1cccc2ccccc12,> 10,> 10
CCOC(=O)c1[nH]c2c(c1C)C(=O)/C(=C/c1ccc(Cl)cc1)CC2,> 10,> 10
O=S(=O)(Oc1ccc2oc3ccccc3c2c1)c1ccccc1F,> 10,> 10
Cc1cc2ccccn2c1C(=O)c1cc2c(C)nn(-c3ccccc3)c2s1,> 10,> 10
O=C1Nc2ccccc2SC1c1c(-c2ccc(Cl)cc2)cc2ccccn12 (configuration not stated),> 10,> 10
O=C(CCN1c2ccccc2Sc2ccccc21)Nc1ccc2ccccc2c1,> 10,> 10
COc1ccc(/C=C/c2nc3cc(C)c(C)cc3s2)c(OC)c1OC,4.27,8.68
CC(C)(C)c1ccc(/C=C2\CCc3c2nc2ccccc2c3C(=O)OCC#N)cc1,> 10,> 10
O=C1c2ccccc2S(=O)(=O)N1c1ccccc1F,> 10,> 10
O=C(Nc1nc(-c2ccc3c(c2)CCCC3)cs1)c1cnccn1,> 10,> 10
Cc1noc(C)c1COC(=O)CC(c1ccccc1)c1ccccc1,> 10,> 10
c1ccc(-n2nnnc2Sc2ncnc3sc4c(c23)CCC4)cc1,> 10,> 10

Compound,IC50 [µM],IC90 [µM]
Cc1cc(C(=O)CSC(c2ccccc2)c2ccccc2)c(C)n1C,> 10,> 10
O=C(COc1ccccc1-c1ccccc1)NCC1CCCCC1,> 10,> 10
COc1ccc(C2CC(CCc3c[nH]c4ccccc34)=NN2c2ccccc2)cc1 (configuration not stated),3.35,3.8
O=C(C1CCCCC1)N1N=C2/C(=C/c3ccco3)CCCC2C1c1ccco1 (configuration not stated),> 10,> 10
CC1CCc2c(sc3ncnc(NCC(c4ccccc4)N(C)C)c23)C1 (configuration not stated),> 10,> 10
C(=C(c1nc2ccccc2s1)c1nc2ccccc2s1)c1ccccn1,> 10,> 10
O=C(CCc1nc2ccccc2s1)OCCOc1ccccc1F,> 10,> 10
O=c1c2c(-c3ccccc3)csc2nc2c3ccccc3c(Cl)nn12,> 10,> 10
C[C@H](NC(N)=O)C(=O)OCC(=O)Nc1cccc(C#N)c1,> 10,> 10
COc1ccc(C(NCc2cccc3ccccc23)C2CC2)cc1 (configuration not stated),> 10,> 10
CCOc1ccc(S(=O)(=O)Nc2ccccc2C(=O)Nc2nnc[nH]2)cc1,> 10,> 10
Cc1ccc(-n2c(C)cc(/C=C3\N=C4CCCCCN4C3=O)c2C)c(C)c1,> 10,> 10
Oc1cc2c(cc1CN1CCN(Cc3ccc4c(c3)OCO4)CC1)CCC2,> 10,> 10
Cc1ccc(S(=O)(=O)NC(=O)c2ccc(Cl)nc2Cl)cc1,> 10,> 10
COc1cccc(/C=C(\c2nc3ccccc3[nH]2)c2nc3ccccc3s2)c1,> 10,> 10
Cc1cc(C)c2c(c1)C(=O)/C(=C/c1ccc(N(C)CCC#N)cc1)CC2,> 10,> 10
O=C(O)CSc1nc2ccccc2c(=O)n1-c1ccccc1Cl,> 10,> 10
COc1ccc(C)cc1-n1c(=O)c2ccccc2n2c(SC)nnc12,> 10,> 10
CC(C)c1ccccc1NC(=O)COC(=O)C(C)(C)Oc1ccc(Cl)cc1,> 10,> 10
Cc1cccc(-c2nc(-c3cc(C)n(-c4nnc[nH]4)c3C)cs2)c1,9.67,> 10
Cn1nnnc1Sc1ncnc2sc3c(c12)CCCC3,> 10,> 10
O=C1N=C(NC2CCCC2)S/C1=C\c1ccc(Cl)cc1,> 10,> 10
